This is an account of results in patent publication EP2326328B1, “USE OF DIHYDRALAZINE FOR THE TREATMENT OF DISEASES RELATED TO ELEVATED SEMICARBAZIDE SENSITIVE AMINE-OXIDASE (SSAO) ACTIVITY” (Semmelweis Egyetem, priority 2008, dated 2010).

A short description of this data set: blood pressure and pulse of treated type 2 diabetic patients. Format: in vivo, human. Conditions: type 2 diabetic patients, oral 14.5 mg dihydralazine sulphate twice daily. The protocol:
After giving their informed consent, patients participating in the study were treated for 56 days taking ½ tablet twice daily of a pharmaceutical composition containing 28.9 mg dihydralazine sulphate (i.e. the ½ tablet contained 14.5 mg dihydralazine sulphate).
To measure the efficacy and monitor the safety of the treatment, the following examinations were carried out before starting the treatment and at the 1., 7., 14., 28. and 56. day of the treatment: • 1. ocular examinations: visual acuity (ETDRS chart), slit-lamp examination, measurement of intraocular pressure with applanation tonometry, fundus biomicroscopy with pupil dilation, digital fundus photography. The grade of macular edema was determined via measuring retinal thickness with optical coherency tomography (OCT). • 2. internal medicine examinations: anamnesis, physical examinations, blood pressure, pulse, urine examination. • 3. laboratory examinations: blood glucose, HbA1c, liver function, kidney function, microalbuminuria, metabolic panel of the blood , lipids, CRP.
In the table the following abbreviations were used: • BMI: body mass index - weight (kg) / height (m^2) • RRsyst: blood pressure (systolic) (Hgmm) • RRdiast: blood pressure (diastolic) (Hgmm) • OCT CST (central subfield thickness): the average thickness of the central 1-mm area of the macula • OCT CPT (center point thickness): the thickness of the center point of the retina; normally that is the thinnest point of the macula Table 4.

As for dihydralazine sulphate, the blood pressure result is listed as “no appreciable lowering of blood pressure was observed”.
